Key:
Assay type in all cases: cell-based
[1] = molecular target: T1, SMARCA2 (Homo sapiens, UniProt P51531); assay: MSD SMARCA2 degradation in A549 cell line; settings: 24 h; for Dmax: A549, A549 cells; for DC50: A549 cells, read-out: SMARCA2 MSD A549 degradation 24 h: Average external-Abs DC50
Outline: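 SMARCA2 protein remaining after 24 h exposure of A549 cells (top concentration 1000 nM, 3-fold dilutions) was measured by MSD electrochemiluminescence immunoassay of cell lysates. Results are given as binned DC50 and maximal degradation (Dmax) codes.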

[2] = molecular target: T2, SMARCA4 (Homo sapiens, UniProt P51532); assay: SMARCA4 Western blot degradation in MV4-11 cells; settings: for Dmax: MV4-11, MV4-11 cells, read-out: SMARCA4 MSD MV411 degradation 24 h: average Dmax %; for Dmax / DC50: 24 h; for DC50: read-out: SMARCA4 MSD MV411 degradation 24 h: Mean external-Abs DC50
T2 construct: SMARCA2/SMARCA4 protein degradation selectivity in MV4-11 cells; endogenous in cells; host or cells: MV4-11
T2 sequence (P51532 whole entry): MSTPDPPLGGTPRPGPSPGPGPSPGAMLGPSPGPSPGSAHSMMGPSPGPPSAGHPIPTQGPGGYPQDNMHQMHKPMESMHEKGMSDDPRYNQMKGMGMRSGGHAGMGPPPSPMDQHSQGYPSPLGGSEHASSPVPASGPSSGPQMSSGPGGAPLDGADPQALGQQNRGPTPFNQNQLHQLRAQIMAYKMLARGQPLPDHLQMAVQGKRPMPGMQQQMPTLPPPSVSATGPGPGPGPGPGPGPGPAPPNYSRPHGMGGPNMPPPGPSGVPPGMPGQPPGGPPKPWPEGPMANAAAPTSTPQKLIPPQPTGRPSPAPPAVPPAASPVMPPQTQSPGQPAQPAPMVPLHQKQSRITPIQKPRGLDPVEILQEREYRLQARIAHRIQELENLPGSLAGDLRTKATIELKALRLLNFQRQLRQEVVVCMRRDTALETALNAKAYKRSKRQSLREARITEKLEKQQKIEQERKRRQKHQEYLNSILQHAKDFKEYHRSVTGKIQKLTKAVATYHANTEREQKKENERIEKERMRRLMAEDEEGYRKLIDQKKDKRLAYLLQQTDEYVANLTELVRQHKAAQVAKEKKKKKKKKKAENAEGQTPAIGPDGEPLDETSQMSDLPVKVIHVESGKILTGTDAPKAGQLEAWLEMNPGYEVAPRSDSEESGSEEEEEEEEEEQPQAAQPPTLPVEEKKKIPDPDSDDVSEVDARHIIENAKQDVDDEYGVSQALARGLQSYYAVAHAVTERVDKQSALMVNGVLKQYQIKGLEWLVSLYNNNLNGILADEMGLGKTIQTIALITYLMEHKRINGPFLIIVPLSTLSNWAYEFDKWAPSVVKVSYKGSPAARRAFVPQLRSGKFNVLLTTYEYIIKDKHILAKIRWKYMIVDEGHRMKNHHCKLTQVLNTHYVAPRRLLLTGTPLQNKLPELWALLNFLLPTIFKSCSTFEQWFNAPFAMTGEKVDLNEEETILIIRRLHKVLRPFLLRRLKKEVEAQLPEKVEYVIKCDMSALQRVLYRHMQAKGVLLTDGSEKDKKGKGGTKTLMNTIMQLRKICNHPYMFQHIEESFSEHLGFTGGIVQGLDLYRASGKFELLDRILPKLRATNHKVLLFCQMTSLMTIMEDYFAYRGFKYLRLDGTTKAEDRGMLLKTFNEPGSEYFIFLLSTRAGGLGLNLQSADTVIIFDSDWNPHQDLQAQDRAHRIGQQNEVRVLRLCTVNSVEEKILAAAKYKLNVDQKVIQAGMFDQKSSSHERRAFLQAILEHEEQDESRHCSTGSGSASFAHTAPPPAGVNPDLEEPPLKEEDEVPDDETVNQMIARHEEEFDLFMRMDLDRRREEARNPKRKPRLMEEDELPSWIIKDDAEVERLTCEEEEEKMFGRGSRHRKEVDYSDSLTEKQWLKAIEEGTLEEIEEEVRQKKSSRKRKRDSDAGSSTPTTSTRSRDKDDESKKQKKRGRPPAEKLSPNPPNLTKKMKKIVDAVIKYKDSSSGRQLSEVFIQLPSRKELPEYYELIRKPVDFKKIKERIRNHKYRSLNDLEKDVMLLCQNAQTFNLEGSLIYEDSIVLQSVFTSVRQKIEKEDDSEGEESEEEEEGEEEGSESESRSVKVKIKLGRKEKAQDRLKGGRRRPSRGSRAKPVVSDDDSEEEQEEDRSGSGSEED
Outline: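 Fluorescent LI-COR imaging of Western blots quantified SMARCA2 and SMARCA4 protein remaining in MV4-11 cells after 24 h of compound treatment. β-actin was the loading control, and DC50, Dmax and SMARCA2/4 selectivity are given as letter-coded ranges.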

[3] = molecular target: T1, SMARCA2; assay: SMARCA2 Western blot degradation in MV4-11 cells; design: SMARCA2/SMARCA4 protein degradation selectivity in MV4-11 cells; endogenous in cells; host or cells: MV4-11; settings: for Dmax: MV4-11, MV4-11 cells, read-out: SMARCA2 MSD MV411 degradation 24 h: average Dmax %; for Dmax / DC50: 24 h; for DC50 / Selectivity in MV411: MV4-11 cells; for DC50: read-out: SMARCA2 MSD MV411 degradation 24 h: Mean external-Abs DC50; for Selectivity in MV411: SMARCA2/4 selectivity

T1 sequence (P51531 whole entry): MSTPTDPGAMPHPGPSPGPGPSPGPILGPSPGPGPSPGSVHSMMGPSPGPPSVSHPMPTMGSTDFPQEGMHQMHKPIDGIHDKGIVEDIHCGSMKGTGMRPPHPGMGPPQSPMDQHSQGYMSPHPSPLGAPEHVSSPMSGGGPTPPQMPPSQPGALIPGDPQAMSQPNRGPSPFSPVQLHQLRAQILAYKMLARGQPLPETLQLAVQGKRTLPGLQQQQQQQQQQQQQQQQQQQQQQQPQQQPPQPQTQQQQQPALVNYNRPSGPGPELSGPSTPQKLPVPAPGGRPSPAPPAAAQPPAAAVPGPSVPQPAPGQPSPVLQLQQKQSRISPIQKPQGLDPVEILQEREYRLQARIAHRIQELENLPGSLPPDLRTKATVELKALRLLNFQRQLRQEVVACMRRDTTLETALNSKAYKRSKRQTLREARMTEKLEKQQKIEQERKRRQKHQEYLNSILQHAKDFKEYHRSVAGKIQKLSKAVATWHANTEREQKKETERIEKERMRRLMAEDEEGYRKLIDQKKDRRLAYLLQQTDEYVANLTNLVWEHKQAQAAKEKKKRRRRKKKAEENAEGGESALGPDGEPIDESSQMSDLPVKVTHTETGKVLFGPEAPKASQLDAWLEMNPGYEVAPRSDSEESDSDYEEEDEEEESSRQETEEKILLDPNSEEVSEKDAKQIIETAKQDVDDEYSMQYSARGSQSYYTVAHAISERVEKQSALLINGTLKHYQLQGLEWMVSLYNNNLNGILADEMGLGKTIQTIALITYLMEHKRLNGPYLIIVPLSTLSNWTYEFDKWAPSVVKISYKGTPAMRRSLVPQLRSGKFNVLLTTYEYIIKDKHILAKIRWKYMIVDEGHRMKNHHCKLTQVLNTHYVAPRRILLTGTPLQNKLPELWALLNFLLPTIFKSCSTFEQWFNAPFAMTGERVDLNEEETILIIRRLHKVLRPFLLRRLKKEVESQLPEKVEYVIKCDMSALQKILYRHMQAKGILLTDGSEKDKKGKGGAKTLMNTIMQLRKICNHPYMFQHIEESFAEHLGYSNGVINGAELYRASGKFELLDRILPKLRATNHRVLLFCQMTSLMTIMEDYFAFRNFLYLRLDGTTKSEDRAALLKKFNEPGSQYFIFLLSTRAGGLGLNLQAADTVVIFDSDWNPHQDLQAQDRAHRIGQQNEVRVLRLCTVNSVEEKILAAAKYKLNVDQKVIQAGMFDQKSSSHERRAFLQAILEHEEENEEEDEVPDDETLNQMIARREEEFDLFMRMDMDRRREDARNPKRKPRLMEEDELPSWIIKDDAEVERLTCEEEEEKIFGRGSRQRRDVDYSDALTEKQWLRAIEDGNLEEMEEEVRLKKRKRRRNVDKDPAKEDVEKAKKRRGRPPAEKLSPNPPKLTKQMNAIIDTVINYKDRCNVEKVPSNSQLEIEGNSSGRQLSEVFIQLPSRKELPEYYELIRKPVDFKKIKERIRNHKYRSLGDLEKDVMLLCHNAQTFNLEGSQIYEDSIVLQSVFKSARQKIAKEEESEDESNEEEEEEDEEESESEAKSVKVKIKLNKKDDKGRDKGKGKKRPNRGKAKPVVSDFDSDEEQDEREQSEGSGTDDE

| SMILES | Dmax [1] [%] | DC50 [1] [nM] | Dmax [2] [%] | DC50 ([2]; MV4-11 cells) [nM] | Dmax [3] [%] | DC50 [3] [nM] | Selectivity in MV411 [3] | SMARCA4 MSD MV411 degradation 24 h: average Dmax % ([2]; MV4-11 cells) |
| --- | --- | --- | --- | --- | --- | --- | --- | --- |
| CC#Cc1ccc(CNC(=O)[C@@H]2C[C@@H](O)CN2C(=O)[C@@H](NC(=O)N2CC3(CC(N4CCC(c5cnc(N6CCc7[nH]c8nnc(-c9ccccc9O)cc8c7[C@H]6C)nc5)CC4)C3)C2)C(C)(C)C)c(OC)c1 [I-271] | > 90 | 50 to 100 | < 50 | > 100 | 70 to 90 | 10 to 100 | C (C (10-100 fold)) |  |
| C#Cc1ccc(CNC(=O)[C@@H]2C[C@@H](O)CN2C(=O)[C@@H](NC(=O)[C@H]2CC3(C2)C[C@H](N2CCN(C(=O)CCN4CCN5c6cc(-c7ccccc7O)nnc6NC[C@H]5C4)CC2)C3)C(C)(C)C)cc1 (stereo partly drawn) [I-274] | > 90 | > 100 | > 90 | 10 to 100 | > 90 | 1 to 10 | C (C (10-100 fold)) |  |
| C#Cc1ccc(CNC(=O)[C@@H]2C[C@@H](O)CN2C(=O)[C@@H](NC(=O)[C@H]2CC3(C2)C[C@H](N2CCN(C(=O)CCN4CCN5c6cc(-c7ccccc7O)nnc6NC[C@H]5C4)CC2)C3)C(C)(C)C)cc1 (stereo partly drawn) [I-275] |  | > 100 |  | 10 to 100 |  | 1 to 10 | C (C (10-100 fold)) |  |
| C#Cc1cc(O)c(CNC(=O)[C@@H]2C[C@@H](O)CN2C(=O)[C@@H](NC(=O)N2CC3(CC(N4CCC(c5cnc(N6CCc7[nH]c8nnc(-c9ccccc9O)cc8c7[C@H]6C)nc5)CC4)C3)C2)C(C)(C)C)c(Cl)c1 [I-281] | < 50 | > 100 | < 50 | > 100 | < 50 | > 100 | D (D (<10 fold)) |  |
| CC(C)C(C(=O)N1C[C@H](O)C[C@H]1C(=O)N[C@@H](C)C#Cc1ccccc1)c1cc(OCCN2CCC(N3CCC(N4CCC(CN5CCN6c7cc(-c8ccccc8O)nnc7NC[C@H]6C5)CC4)CC3)CC2)no1 (stereo partly drawn) [I-283] | 70 to 90 | > 100 | < 50 | > 100 | < 50 | > 100 | D (D (<10 fold)) |  |
| C#Cc1ccc(CNC(=O)[C@@H]2C[C@@H](O)CN2C(=O)[C@@H](NC(=O)[C@H]2CC[C@@H](CN3CCC(c4cnc(N5CCN6c7cc(-c8ccccc8O)nnc7NC[C@H]6C5)nc4)CC3)CC2)C(C)(C)C)cc1 [I-293] | > 90 | 10 to 50 | 50 to 70 | > 100 | 70 to 90 | 1 to 10 | B (B (>100-500 fold)) |  |
| C#Cc1ccc(CNC(=O)[C@@H]2C[C@@H](O)CN2C(=O)C(c2cc(OCCN3CCC(N4CCC(N5CCC(CN6CCN7c8cc(-c9ccccc9O)nnc8NC[C@H]7C6)CC5)CC4)CC3)no2)C(C)C)c(F)c1 (stereo partly drawn) [I-296] | > 90 | 50 to 100 | 70 to 90 | 10 to 100 | > 90 | 1 to 10 | C (C (10-100 fold)) |  |
| C#Cc1ccc(CNC(=O)[C@@H]2C[C@@H](O)CN2C(=O)[C@@H](NC(=O)[C@H]2CC3(C2)C[C@H](c2cnc(N4CCC(N5CCN6c7cc(-c8ccccc8O)nnc7NC[C@H]6C5)CC4)nc2)C3)C(C)(C)C)cc1 (stereo partly drawn) [I-302] |  | 10 to 50 |  | 10 to 100 |  | 1 to 10 | C (C (10-100 fold)) |  |
| C#Cc1cnc(CNC(=O)[C@@H]2C[C@@H](O)CN2C(=O)C(c2cc(OCCN3CCC(N4CCC(N5CCC(CN6CCN7c8cc(-c9ccccc9O)nnc8NC[C@H]7C6)CC5)CC4)CC3)no2)C(C)C)c(OC)c1 (stereo partly drawn) [I-303] | > 90 | > 100 | < 50 | > 100 | 70 to 90 | 10 to 100 | B (B (>100-500 fold)) |  |
| C#Cc1ccc([C@@H](CO)NC(=O)[C@@H]2C[C@@H](O)CN2C(=O)[C@@H](NC(=O)N2CC3(CC(N4CCC(c5cnc(N6CCc7[nH]c8nnc(-c9ccccc9O)cc8c7[C@H]6C)nc5)CC4)C3)C2)C(C)(C)C)nc1 [I-305] | 50 to 70 | > 100 | < 50 | > 100 | 50 to 70 | > 100 | D (D (<10 fold)) |  |
| C#Cc1ccc(CNC(=O)[C@@H]2C[C@@H](O)CN2C(=O)[C@H](NC(=O)[C@H]2CCC3(CC2)C[C@H](N2CCN(c4cnc(N5CCN6c7cc(-c8ccccc8O)nnc7NC[C@H]6C5)nc4)CC2)C3)C(C)(C)CCO)c(Cl)c1 (stereo partly drawn) [I-307] |  | > 100 |  | > 100 |  |  | D (D (<10 fold)) | D (D (<50% degradation)) |
| C#Cc1ccc(CNC(=O)[C@@H]2C[C@@H](O)CN2C(=O)[C@@H](NC(=O)N2CC3(CC(N4CCC(c5cnc(N6CCc7[nH]c8nnc(-c9ccccc9O)cc8c7[C@H]6C)nc5)CC4)C3)C2)C(C)(C)C)cc1Cl [I-309] | > 90 | 10 to 50 | 70 to 90 | > 100 | > 90 | 10 to 100 | C (C (10-100 fold)) |  |
| C#Cc1ccc(CNC(=O)[C@@H]2C[C@@H](O)CN2C(=O)[C@@H](NC(=O)N2CC3(CC(N4CCC(c5cnc(N6CCc7[nH]c8nnc(-c9ccccc9O)cc8c7[C@H]6C)nc5)CC4)C3)C2)C(C)(C)C)cc1F [I-310] | > 90 | 10 to 50 | > 90 | > 100 | > 90 | 1 to 10 | C (C (10-100 fold)) |  |

Results, then the compound that gave them:

| Dmax [1] [%] | DC50 [1] [nM] | Dmax [2] [%] | DC50 ([2]; MV4-11 cells) [nM] | Dmax [3] [%] | DC50 [3] [nM] | Selectivity in MV411 [3] | SMARCA4 MSD MV411 degradation 24 h: average Dmax % ([2]; MV4-11 cells) | SMILES |
| --- | --- | --- | --- | --- | --- | --- | --- | --- |
| > 90 | < 10 | > 90 | 10 to 100 | > 90 | 1 to 10 | C (C (10-100 fold)) |  | C#Cc1ccc(CNC(=O)[C@@H]2C[C@@H](O)CN2C(=O)[C@@H](NC(=O)N2CC3(CC(c4cnc(N5CCC(N6CCN7c8cc(-c9ccccc9O)nnc8NC[C@H]7C6)CC5)nc4)C3)C2)C(C)(C)C)cc1 [I-276] |
| > 90 | < 10 | 70 to 90 | 10 to 100 | > 90 | 1 to 10 | C (C (10-100 fold)) |  | C#Cc1ccc(CNC(=O)[C@@H]2C[C@@H](O)CN2C(=O)[C@@H](NC(=O)c2ccc(N3CCC(N4CCC(N5CCN6c7cc(-c8ccccc8O)nnc7NC[C@H]6C5)CC4)CC3)cc2)C(C)(C)C)cc1 [I-277] |
| > 90 | < 10 | 70 to 90 | > 100 | 70 to 90 | 1 to 10 | C (C (10-100 fold)) |  | C#Cc1ccc([C@H](C)NC(=O)[C@@H]2C[C@@H](O)CN2C(=O)[C@@H](NC(=O)N2CC3(CC(N4CCC(c5cnc(N6CCc7[nH]c8nnc(-c9ccccc9O)cc8c7[C@H]6C)nc5)CC4)C3)C2)C(C)(C)C)c(O)c1 [I-282] |
| > 90 | 10 to 50 | 50 to 70 | > 100 | > 90 | 1 to 10 | C (C (10-100 fold)) |  | C#Cc1ccc(CNC(=O)[C@@H]2C[C@@H](O)CN2C(=O)[C@@H](NC(=O)N2CCN(C3CC4(CCN(c5cnc(N6CCN7c8cc(-c9ccccc9O)nnc8NC[C@H]7C6)nc5)CC4)C3)CC2)C(C)(C)C)cc1 [I-284] |
| > 90 | < 10 | 70 to 90 | 10 to 100 | > 90 | 1 to 10 | C (C (10-100 fold)) |  | C#Cc1ccc(CNC(=O)[C@@H]2C[C@@H](O)CN2C(=O)[C@@H](NC(=O)N2CC3(CC(N4CCC(c5cnc(N6CCc7[nH]c8nnc(-c9ccccc9O)cc8c7[C@H]6C)nc5)CC4)C3)C2)C(C)(C)CCO)cc1 [I-288] |
| > 90 | 10 to 50 | > 90 | 10 to 100 | > 90 | 1 to 10 | C (C (10-100 fold)) |  | C#Cc1ccc([C@H](C)NC(=O)[C@@H]2C[C@@H](O)CN2C(=O)C(c2cc(N3CCC(N4CCC(N5CCC(CN6CCN7c8cc(-c9ccccc9O)nnc8NC[C@H]7C6)CC5)CC4)CC3)no2)C(C)C)cc1 (stereo partly drawn) [I-291] |
| > 90 | < 10 | > 90 | 10 to 100 | > 90 | 1 to 10 | C (C (10-100 fold)) |  | C#Cc1ccc(CNC(=O)[C@@H]2C[C@@H](O)CN2C(=O)[C@@H](NC(=O)c2ccc(N3CCC(N4CCC(N5CCN6c7cc(-c8ccccc8O)nnc7NC[C@H]6C5)CC4)CC3)cn2)C(C)(C)C)cc1 [I-292] |
| > 90 | < 10 | 70 to 90 | 10 to 100 | > 90 | 1 to 10 | C (C (10-100 fold)) |  | C#Cc1ccc(CNC(=O)[C@@H]2C[C@@H](O)CN2C(=O)[C@@H](NC(=O)[C@H]2CC[C@H](CN3CCC(c4cnc(N5CCN6c7cc(-c8ccccc8O)nnc7NC[C@H]6C5)nc4)CC3)CC2)C(C)(C)C)cc1 [I-294] |

— US20250170248A1, “SMARCA DEGRADERS AND USES THEREOF” (Kymera Therapeutics, Inc., priority 2021, published 2025)
